# Measurements reported in ChEMBL document CHEMBL1135258, “Substrate spectrum of tyrocidine thioesterase probed with randomized peptide N-acetylcysteamine thioesters” (Bioorg Med Chem Lett, 2002).
# Columns and labels:
# [1] = target: T1, Thioesterase GrsT homolog tycF (Brevibacillus brevis) (UniProt O30412); assay: Apparent kinetic constant (Kcat) for tyrocidine thioesterase amplified from Bacillus brevis (ATCC8185)
# T1 sequence (whole entry): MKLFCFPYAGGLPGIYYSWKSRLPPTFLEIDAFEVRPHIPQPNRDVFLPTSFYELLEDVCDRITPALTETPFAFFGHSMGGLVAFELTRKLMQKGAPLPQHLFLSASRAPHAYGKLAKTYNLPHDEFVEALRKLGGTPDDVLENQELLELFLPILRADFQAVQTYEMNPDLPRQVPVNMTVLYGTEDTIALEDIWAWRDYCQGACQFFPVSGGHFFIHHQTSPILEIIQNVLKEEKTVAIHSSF
# [2] = target: T1, Thioesterase GrsT homolog tycF (Brevibacillus brevis); assay: Catalytic efficiency (Kcat/Km) was determined; design: unit not given here
k cat [1] [s⁻¹],Ratio [2],Structure (SMILES)
0.25,0.11,CC(=O)NCCSC(=O)[C@H](CC(C)C)NC(=O)[C@H](CCCN)NC(=O)[C@@H](NC(=O)[C@H](Cc1ccc(O)cc1)NC(=O)[C@H](CCC(N)=O)NC(=O)[C@H](CC(N)=O)NC(=O)[C@@H]1CCCN1C(=O)[C@H](Cc1ccccc1)NC(=O)[C@@H]1CCCN1C(=O)[C@H](N)Cc1ccccc1)C(C)C
0.16,0.18,CC(=O)NCCSC(=O)[C@H](CC(C)C)NC(=O)[C@H](CCCN)NC(=O)[C@@H](NC(=O)[C@H](Cc1ccc(O)cc1)NC(=O)[C@@H](NC(=O)[C@H](CC(N)=O)NC(=O)[C@@H](Cc1ccccc1)NC(=O)[C@H](Cc1ccccc1)NC(=O)[C@@H]1CCCN1C(=O)[C@H](N)Cc1ccccc1)C(C)C)C(C)C
0.117,0.43,CC(=O)NCCSC(=O)[C@H](CC(C)C)NC(=O)[C@H](CCCN)NC(=O)[C@@H](NC(=O)[C@H](Cc1ccc(O)cc1)NC(=O)[C@H](CCC(N)=O)NC(=O)[C@H](CC(N)=O)NC(=O)[C@H](CCC(N)=O)NC(=O)[C@H](Cc1ccccc1)NC(=O)[C@@H]1CCCN1C(=O)[C@H](N)Cc1ccccc1)C(C)C
0.45,0.19,CC(=O)NCCSC(=O)[C@H](CC(C)C)NC(=O)[C@H](CCCN)NC(=O)[C@@H](NC(=O)[C@H](Cc1ccc(O)cc1)NC(=O)[C@H](CCC(N)=O)NC(=O)[C@H](CC(N)=O)NC(=O)[C@@H](NC(=O)[C@H](Cc1ccccc1)NC(=O)[C@@H]1CCCN1C(=O)[C@H](N)Cc1ccccc1)C(C)C)C(C)C
0.233,0.083,CC(=O)NCCSC(=O)[C@H](CC(C)C)NC(=O)[C@H](CCCN)NC(=O)[C@@H](NC(=O)[C@H](Cc1ccc(O)cc1)NC(=O)[C@H](CCC(N)=O)NC(=O)[C@H](CC(N)=O)NC(=O)[C@@H](Cc1ccccc1)NC(=O)[C@H](CC(N)=O)NC(=O)[C@@H]1CCCN1C(=O)[C@H](N)Cc1ccccc1)C(C)C
0.133,0.42,CC(=O)NCCSC(=O)[C@H](CC(C)C)NC(=O)[C@H](CCCN)NC(=O)[C@@H](NC(=O)[C@H](Cc1ccc(O)cc1)NC(=O)[C@H](CCC(N)=O)NC(=O)[C@H](CC(N)=O)NC(=O)[C@H](CC(N)=O)NC(=O)[C@H](Cc1ccccc1)NC(=O)[C@@H]1CCCN1C(=O)[C@H](N)Cc1ccccc1)C(C)C
0.733,4.78,CC(=O)NCCSC(=O)[C@H](CC(C)C)NC(=O)[C@H](CCCN)NC(=O)[C@@H](NC(=O)[C@H](Cc1ccc(O)cc1)NC(=O)[C@H](CCC(N)=O)NC(=O)[C@H](CC(N)=O)NC(=O)[C@@H](Cc1ccccc1)NC(=O)[C@H](Cc1ccccc1)NC(=O)[C@@H]1CCCN1C(=O)[C@H](N)Cc1ccccc1)C(C)C (stereo in doubt; form 1)
0.12,0.95,CC(=O)NCCSC(=O)[C@H](CC(C)C)NC(=O)[C@H](CCCN)NC(=O)[C@@H](NC(=O)[C@H](Cc1ccc(O)cc1)NC(=O)[C@H](CCC(N)=O)NC(=O)[C@H](CC(N)=O)NC(=O)[C@H](Cc1c[nH]c2ccccc12)NC(=O)[C@H](Cc1ccccc1)NC(=O)[C@@H]1CCCN1C(=O)[C@H](N)Cc1ccccc1)C(C)C
0.15,0.28,CC(=O)NCCSC(=O)[C@H](CC(C)C)NC(=O)[C@H](CCCN)NC(=O)[C@H](CCCN=C(N)N)NC(=O)[C@H](Cc1ccc(O)cc1)NC(=O)[C@H](CCC(N)=O)NC(=O)[C@H](CC(N)=O)NC(=O)[C@@H](Cc1ccccc1)NC(=O)[C@H](Cc1ccccc1)NC(=O)[C@@H]1CCCN1C(=O)[C@H](N)Cc1ccccc1
0.233,0.92,CC(=O)NCCSC(=O)[C@H](CC(C)C)NC(=O)[C@H](CCCN)NC(=O)[C@@H](NC(=O)[C@H](Cc1ccc(O)cc1)NC(=O)[C@H](CCC(N)=O)NC(=O)[C@H](CC(N)=O)NC(=O)[C@H](CCCCN)NC(=O)[C@H](Cc1ccccc1)NC(=O)[C@@H]1CCCN1C(=O)[C@H](N)Cc1ccccc1)C(C)C
